Measurements as given in patent publication US20110297235A1, “USE OF TRIARYLAMINE DERIVATIVES AS HOLE-CONDUCTING MATERIALS IN ORGANIC SOLAR CELLS AND ORGANIC SOLAR CELLS CONTAINING SAID TRIARYLAMINE DERIVATIVES” (BASF SE, priority 2009, published 2011).
≈ marks a conversion by molar mass, not a printed value.

What was measured:
[1] = Glass transition temperature Tg and morphology M by means of DSC; assay type: physicochemical
[2] = Decomposition temperature Td by means of TGA; assay type: physicochemical
physchem = conditions: organic solvent or mixture

| Structure (SMILES) | glass transition temperature Tg [1] [°C] | decomposition temperature Td [2] [°C] | solubility (physchem; solubility L in chlorobenzene) [mg/mL] | solubility (physchem; solubility in Ethyl acetate) [mg/mL] | solubility (physchem; solubility in Tetrahydrofuran) [mg/mL] | solubility (physchem; solubility in Toluene) [mg/mL] | solubility (physchem; solubility in Anisole) [mg/mL] |
| --- | --- | --- | --- | --- | --- | --- | --- |
| COc1ccc(N(c2ccc(N(c3ccccc3)c3ccc(N(c4ccccc4)c4ccc(N(c5ccc(OC)cc5)c5ccc6c(c5)C(C)(C)c5ccccc5-6)cc4)cc3)cc2)c2ccc3c(c2)C(C)(C)c2ccccc2-3)cc1 [ID366] | 127 | 460 | > 1100 | > 560 | > 440 | > 380 | – |
| COc1ccc(N(c2ccc(OC)cc2)c2ccc(-c3ccc(N(c4ccc(-c5ccc(N(c6ccc(-c7ccc(N(c8ccc(OC)cc8)c8ccc(OC)cc8)cc7)cc6)c6ccc7c(c6)C(C)(C)c6ccccc6-7)cc5)cc4)c4ccc5c(c4)C(C)(C)c4ccccc4-5)cc3)cc2)cc1 [ID369] | 154 | 460 | 300 to 450 (≈ 226 to 339 mM) | 140 to 280 (≈ 105 to 211 mM) | 100 to 150 (≈ 75.3 to 113 mM) | 140 to 170 (≈ 105 to 128 mM) | – |
| CCCCCCC1(CCCCCC)c2cc(N(c3ccc(OCC(CC)CCCC)cc3)c3ccc(-c4ccc(N(c5ccc(OC)cc5)c5ccc(OC)cc5)cc4)cc3)ccc2-c2ccc(N(c3ccc(OCC(CC)CCCC)cc3)c3ccc(-c4ccc(N(c5ccc(OC)cc5)c5ccc(OC)cc5)cc4)cc3)cc21 (centres unmarked) [ID569] | 47 | 440 | 400 to 800 (≈ 261 to 522 mM) | – | – | – | – |
| COc1ccc(N(c2ccc(-c3ccc(N(c4ccc(OC)cc4)c4ccc(-c5ccc(N(c6ccc(OC)cc6)c6ccc7c(c6)C(C)(C)c6ccccc6-7)cc5)cc4)cc3)cc2)c2ccc(-c3ccc(N(c4ccc(OC)cc4)c4ccc5c(c4)C(C)(C)c4ccccc4-5)cc3)cc2)cc1 [ID453] | 156 | 440 | 450 to 700 (≈ 339 to 527 mM) | 40 (≈ 30.1 mM) | 340 to 680 (≈ 256 to 512 mM) | 170 to 230 (≈ 128 to 173 mM) | – |
| COc1ccc(N(c2ccc(OC)cc2)c2ccc(-c3ccc(N(c4ccc(OC)cc4)c4ccc(-c5ccc(N(c6ccc(OC)cc6)c6ccc(-c7ccc(N(c8ccc(OC)cc8)c8ccc(OC)cc8)cc7)cc6)c(C)c5)cc4C)cc3)cc2)cc1 [ID631] | 134 | 440 | > 1300 | 700 to 1400 (≈ 591 to 1180 mM) | 1000 to 2000 (≈ 845 to 1690 mM) | 500 to 1000 (≈ 422 to 845 mM) | 500 to 1000 (≈ 422 to 845 mM) |
| CCOc1ccc(N(c2ccc(C3=CCC(N(c4ccc(OC)cc4)c4ccc(-c5ccc(N(c6ccc(OC)cc6)c6ccc(-c7ccc(N(c8ccc(OCC)cc8)c8cccc9ccccc89)cc7)cc6)cc5)cc4)C=C3)cc2)c2cccc3ccccc23)cc1 (centres unmarked) [ID565] | 143 | 450 | > 900 | < 40 | > 850 | 400 to 800 (≈ 326 to 653 mM) | > 1000 |
| COc1ccc(N(c2ccc(OC)cc2)c2ccc(-c3ccc(N(c4ccc(OC)cc4)c4ccc5c(c4)Cc4cc(N(c6ccc(OC)cc6)c6ccc(-c7ccc(N(c8ccc(OC)cc8)c8ccc(OC)cc8)cc7)cc6)ccc4-5)cc3)cc2)cc1 [ID523] | 141 | 450 | 1250 to 2500 (≈ 1070 to 2140 mM) | 240 to 480 (≈ 206 to 411 mM) | 400 to 550 (≈ 343 to 471 mM) | 900 to 1800 (≈ 771 to 1540 mM) | – |
| COc1ccc(N(c2ccc(OC)cc2)c2ccc3c(c2)C2(c4cc(N(c5ccc(OC)cc5)c5ccc(OC)cc5)ccc4-3)c3cc(N(c4ccc(OC)cc4)c4ccc(OC)cc4)ccc3-c3ccc(N(c4ccc(OC)cc4)c4ccc(OC)cc4)cc32)cc1 [spiro-MeOTAD, 2,2′,7,7′-tetrakis(N,N-di-p-methoxyphenyl-amine)-9,9′-spirobifluorene, reference compound] | 120 | 440 | 200 to 230 (≈ 163 to 188 mM) | < 6 | 120 to 160 (≈ 97.9 to 131 mM) | 100 (≈ 81.6 mM) | 65 to 75 (≈ 53 to 61.2 mM) |
| COc1ccc(C(c2ccc(OC)cc2)c2ccc(N(c3ccc(OC)cc3)c3ccc(-c4ccc(N(c5ccc(OC)cc5)c5ccc(N(c6ccc(OC)cc6)c6ccc(OC)cc6)cc5)cc4)cc3)cc2)cc1 [ID480] | 105 | 430 | > 280 | – | – | – | – |
| COc1ccc(N(c2ccc(OC)cc2)c2ccc(N(c3ccccc3)c3ccc(-c4ccc(N(c5ccccc5)c5ccc(N(c6ccc(OC)cc6)c6ccc(OC)cc6)cc5)cc4)cc3)cc2)cc1 [ID320] | 96 | 450 | 760 to 1000 (≈ 806 to 1060 mM) | 140 (≈ 148 mM) | > 280 | 280 (≈ 297 mM) | – |
| CCCCCCC1(CCCCCC)c2cc(N(c3ccc(OC)cc3)c3ccc(-c4ccc(N(c5ccc(OC)cc5)c5ccc(OC)cc5)cc4)cc3)ccc2-c2ccc(N(c3ccc(OC)cc3)c3ccc(-c4ccc(N(c5ccc(OC)cc5)c5ccc(OC)cc5)cc4)cc3)cc21 [ID450] | 105 | 420 | 900 to 1800 (≈ 674 to 1350 mM) | – | – | – | – |
| COc1ccc(N(c2ccc(OC)cc2)c2ccc(-c3ccc(N(c4ccc(OC)cc4)c4ccc(-c5ccc(N(c6ccc(OC)cc6)c6ccc(-c7ccc(N(c8ccc(OC)cc8)c8ccc(OC)cc8)cc7)cc6)s5)s4)cc3)cc2)cc1 [ID575] | 110 | 440 | > 400 | – | – | – | – |
| COc1ccc(N(c2ccc(OC)cc2)c2ccc(-c3ccc(N(c4ccc(-c5ccc(N(c6ccc(-c7ccc(N(c8ccc(OC)cc8)c8ccc(OC)cc8)cc7)cc6)c6cc(F)c(OC)c(F)c6)cc5)cc4)c4cc(F)c(OC)c(F)c4)cc3)cc2)cc1 [ID629] | 134 | 430 | > 2000 | > 1300 | > 2000 | > 1500 | > 1500 |
| COc1ccc(N(c2ccc(OC)cc2)c2ccc3c(c2)C(C)(C)c2cc(N(c4ccc(OC)cc4)c4ccc(-c5ccc(N(c6ccc(OC)cc6)c6ccc7c(c6)C(C)(C)c6cc(N(c8ccc(OC)cc8)c8ccc(OC)cc8)ccc6-7)cc5)cc4)ccc2-3)cc1 [ID518] | 150 | 430 | 400 to 800 (≈ 324 to 647 mM) | > 400 | 550 to 1100 (≈ 445 to 890 mM) | 160 to 240 (≈ 129 to 194 mM) | – |

Other lines, results leading:

| glass transition temperature Tg [1] [°C] | decomposition temperature Td [2] [°C] | solubility (physchem; solubility L in chlorobenzene) [mg/mL] | solubility (physchem; solubility in Ethyl acetate) [mg/mL] | solubility (physchem; solubility in Tetrahydrofuran) [mg/mL] | solubility (physchem; solubility in Toluene) [mg/mL] | solubility (physchem; solubility in Anisole) [mg/mL] | Structure (SMILES) |
| --- | --- | --- | --- | --- | --- | --- | --- |
| 120 | 430 | 1250 to 2500 (≈ 1160 to 2320 mM) | 50 to 65 (≈ 46.3 to 60.2 mM) | 1000 to 2000 (≈ 927 to 1850 mM) | > 460 | – | COc1ccc(N(c2ccc(OC)cc2)c2ccc(-c3ccc(N(c4ccc(OC)cc4)c4ccc(N(c5ccc(OC)cc5)c5ccc(-c6ccc(N(c7ccc(OC)cc7)c7ccc(OC)cc7)cc6)cc5)cc4)cc3)cc2)cc1 [ID446] |
| 138 | 450 | > 900 | 60 to 100 (≈ 53.4 to 89 mM) | > 800 | > 500 | > 400 | COc1ccc(N(c2ccc(C)cc2)c2ccc(-c3ccc(N(c4ccc(OC)cc4)c4ccc(-c5ccc(N(c6ccc(OC)cc6)c6ccc(-c7ccc(N(c8ccc(C)cc8)c8ccc(OC)cc8)cc7)cc6)cc5)cc4)cc3)cc2)cc1 [ID572] |
| 154 | 460 | 500 to 1000 (≈ 414 to 828 mM) | > 380 | 180 to 360 (≈ 149 to 298 mM) | > 240 | – | COc1ccc(N(c2ccc(OC)cc2)c2ccc(-c3ccc(N(c4ccc(-c5ccc(N(c6ccc(-c7ccc(N(c8ccc(OC)cc8)c8ccc(OC)cc8)cc7)cc6)c6ccc(C(C)(C)C)cc6)cc5)cc4)c4ccc(C(C)(C)C)cc4)cc3)cc2)cc1 [ID368] |
| 128 | 450 | 450 to 900 (≈ 391 to 782 mM) | > 460 | > 500 | 240 to 350 (≈ 208 to 304 mM) | – | COc1ccc(N(c2ccc(-c3ccc(N(c4ccc(OC)cc4)c4ccc(-c5ccc(N(c6ccc(OC)cc6)c6ccc(C)c(C)c6)cc5)cc4)cc3)cc2)c2ccc(-c3ccc(N(c4ccc(OC)cc4)c4ccc(C)c(C)c4)cc3)cc2)cc1 [ID519] |
| 143 | 460 | 900 to 1150 (≈ 822 to 1050 mM) | 15 (≈ 13.7 mM) | > 240 | > 100 | – | COc1ccc(N(c2ccc(OC)cc2)c2ccc(-c3ccc(N(c4ccccc4)c4ccc(-c5ccc(N(c6ccccc6)c6ccc(-c7ccc(N(c8ccc(OC)cc8)c8ccc(OC)cc8)cc7)cc6)cc5)cc4)cc3)cc2)cc1 [ID321] |
| 136 | 450 | 700 to 1000 (≈ 606 to 865 mM) | 70 to 80 (≈ 60.6 to 69.2 mM) | 370 to 550 (≈ 320 to 476 mM) | 320 to 500 (≈ 277 to 433 mM) | 450 to 700 (≈ 389 to 606 mM) | COc1ccc(N(c2ccc(OC)cc2)c2ccc(-c3ccc(N(c4ccc(OC)cc4)c4ccc(-c5ccc(N(c6ccc(OC)cc6)c6ccc(-c7ccc(N(c8ccc(OC)cc8)c8ccc(OC)cc8)cc7)cc6)cc5)cc4)cc3)cc2)cc1 [ID367] |
| 65 | 360 | > 650 | – | – | – | – | CCCCC(CC)COc1ccc(N(c2ccc(-c3ccc(N(c4ccc(OC)cc4)c4ccc(OC)cc4)cc3)cc2)c2ccc(-c3ccc(N(c4ccc(OCC(CC)CCCC)cc4)c4ccc(-c5ccc(N(c6ccc(OC)cc6)c6ccc(OC)cc6)cc5)cc4)cc3)cc2)cc1 (centres unmarked) [ID568] |
| 137 | 430 | 900 to 1800 (≈ 753 to 1510 mM) | > 660 | 750 to 1500 (≈ 627 to 1250 mM) | > 520 | – | COc1ccc(N(c2ccc(OC)cc2)c2ccc(-c3ccc(N(c4ccc(OC)cc4)c4ccc5c(c4)C(C)(C)c4cc(N(c6ccc(OC)cc6)c6ccc(-c7ccc(N(c8ccc(OC)cc8)c8ccc(OC)cc8)cc7)cc6)ccc4-5)cc3)cc2)cc1 [ID447] |
| 123 | 450 | 650 to 1300 (≈ 525 to 1050 mM) | – | 300 to 600 (≈ 242 to 485 mM) | > 270 | – | COc1ccc(N(c2ccc(OC)cc2)c2ccc(-c3ccc(N(c4ccc(OC)cc4)c4ccc(C5(c6ccc(N(c7ccc(OC)cc7)c7ccc(-c8ccc(N(c9ccc(OC)cc9)c9ccc(OC)cc9)cc8)cc7)cc6)CCCCC5)cc4)cc3)cc2)cc1 [ID452] |
